Assays:
Test in all cases: DSF
Format in all cases: binding
ABL1 = target: T1, ABL1 (Homo sapiens, UniProt P00519)
T1 construct: purchased in-house DSF panel (SGC Frankfurt)
T1 sequence (P00519 229-500): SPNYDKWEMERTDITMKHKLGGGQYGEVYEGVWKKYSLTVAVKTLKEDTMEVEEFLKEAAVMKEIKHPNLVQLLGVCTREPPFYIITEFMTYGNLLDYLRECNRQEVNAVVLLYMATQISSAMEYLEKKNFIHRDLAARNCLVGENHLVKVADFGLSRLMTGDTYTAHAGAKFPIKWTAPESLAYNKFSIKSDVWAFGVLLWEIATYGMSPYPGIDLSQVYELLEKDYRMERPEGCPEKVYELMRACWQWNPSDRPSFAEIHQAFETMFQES
Method: (§1) Recombinant protein kinase domains with a concentration of 2 μM were mixed with a 10 μM compound solution in DMSO, 20 mM HEPES, pH 7.5, and 500 mM NaCl. SYPRO Orange (5000×, Invitrogen) was added as a fluorescence probe (1 µl per mL). Subsequently, temperature-dependent protein unfolding profiles were measured, using the QuantStudio™ 5 realtime PCR machine (Thermo Fisher, Waltham, MA, USA). […] The temperature was raised with a step rate of 3 °C per minute. Data points were analyzed with the internal software (Thermal Shift SoftwareTM Version 1.4, Thermo Fisher) using the Boltzmann equation to determine the inflection point of the transition curve. Differences in melting temperature are given as ΔTm values in °C. Measurements were performed in duplicates.

BMX = target: T2, BMX (Homo sapiens, UniProt P51813)
T2 construct: purchased in-house DSF panel (SGC Frankfurt)
T2 sequence (P51813 411-675): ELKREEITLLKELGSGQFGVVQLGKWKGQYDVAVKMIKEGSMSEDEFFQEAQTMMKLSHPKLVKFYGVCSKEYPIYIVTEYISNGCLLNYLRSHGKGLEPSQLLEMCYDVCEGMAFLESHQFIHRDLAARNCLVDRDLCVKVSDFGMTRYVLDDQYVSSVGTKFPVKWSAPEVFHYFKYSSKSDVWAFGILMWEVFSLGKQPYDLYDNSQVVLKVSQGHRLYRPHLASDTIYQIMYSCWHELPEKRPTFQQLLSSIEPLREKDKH
Method: as §1

CAMK1D = target: T3, CAMK1D (Homo sapiens, UniProt Q8IU85)
T3 construct: purchased in-house DSF panel (SGC Frankfurt)
T3 sequence (Q8IU85 23-279): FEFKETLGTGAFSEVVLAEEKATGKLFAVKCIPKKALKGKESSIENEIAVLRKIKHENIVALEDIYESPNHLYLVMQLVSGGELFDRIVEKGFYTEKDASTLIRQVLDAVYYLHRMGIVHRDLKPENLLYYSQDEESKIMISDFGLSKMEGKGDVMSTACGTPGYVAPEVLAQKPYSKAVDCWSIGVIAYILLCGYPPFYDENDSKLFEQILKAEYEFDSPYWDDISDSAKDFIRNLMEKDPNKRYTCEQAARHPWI
Method: as §1

CAMK1G = target: T4, CAMK1G (Homo sapiens, UniProt Q96NX5)
T4 construct: purchased in-house DSF panel (SGC Frankfurt)
T4 sequence (Q96NX5 whole entry): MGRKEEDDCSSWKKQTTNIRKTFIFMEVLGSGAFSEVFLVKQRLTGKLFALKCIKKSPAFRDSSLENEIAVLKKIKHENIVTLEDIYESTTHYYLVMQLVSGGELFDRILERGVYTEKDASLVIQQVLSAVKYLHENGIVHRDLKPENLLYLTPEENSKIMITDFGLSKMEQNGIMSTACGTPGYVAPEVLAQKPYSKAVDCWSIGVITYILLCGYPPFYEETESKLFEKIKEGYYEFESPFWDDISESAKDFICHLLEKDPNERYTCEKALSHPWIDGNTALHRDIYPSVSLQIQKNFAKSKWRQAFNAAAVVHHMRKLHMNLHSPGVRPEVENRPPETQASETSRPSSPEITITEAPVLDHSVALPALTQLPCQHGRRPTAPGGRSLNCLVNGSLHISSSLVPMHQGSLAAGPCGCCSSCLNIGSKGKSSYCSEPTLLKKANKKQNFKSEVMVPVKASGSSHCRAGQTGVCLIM
Method: as §1

CASK = target: T5, CASK (Homo sapiens, UniProt O14936)
T5 construct: purchased in-house DSF panel (SGC Frankfurt)
T5 sequence (O14936 1-337): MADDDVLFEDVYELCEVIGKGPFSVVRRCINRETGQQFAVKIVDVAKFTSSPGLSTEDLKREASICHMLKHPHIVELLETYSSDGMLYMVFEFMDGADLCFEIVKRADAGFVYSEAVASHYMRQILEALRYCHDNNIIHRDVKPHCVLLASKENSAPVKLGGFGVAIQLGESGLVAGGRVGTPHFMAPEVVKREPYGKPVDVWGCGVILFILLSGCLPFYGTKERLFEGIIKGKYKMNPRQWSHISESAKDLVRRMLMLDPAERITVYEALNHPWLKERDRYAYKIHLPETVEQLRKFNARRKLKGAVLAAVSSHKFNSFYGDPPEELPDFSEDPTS
Method: as §1

CDKL1 = target: T6, CDKL1 (Homo sapiens, UniProt Q00532)
T6 construct: purchased in-house DSF panel (SGC Frankfurt)
T6 sequence (Q00532 1-303): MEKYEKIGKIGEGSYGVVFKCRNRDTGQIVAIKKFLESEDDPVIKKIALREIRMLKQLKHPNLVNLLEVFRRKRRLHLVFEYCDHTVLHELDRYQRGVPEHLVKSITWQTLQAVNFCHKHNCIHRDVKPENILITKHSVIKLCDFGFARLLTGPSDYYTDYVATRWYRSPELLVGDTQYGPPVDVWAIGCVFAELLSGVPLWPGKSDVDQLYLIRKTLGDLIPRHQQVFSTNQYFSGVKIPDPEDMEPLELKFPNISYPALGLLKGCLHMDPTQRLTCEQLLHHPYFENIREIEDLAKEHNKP
Method: as §1

CHEK2 = target: T7, CHEK2 (Homo sapiens, UniProt O96017)
T7 construct: purchased in-house DSF panel (SGC Frankfurt)
T7 sequence (O96017 210-531): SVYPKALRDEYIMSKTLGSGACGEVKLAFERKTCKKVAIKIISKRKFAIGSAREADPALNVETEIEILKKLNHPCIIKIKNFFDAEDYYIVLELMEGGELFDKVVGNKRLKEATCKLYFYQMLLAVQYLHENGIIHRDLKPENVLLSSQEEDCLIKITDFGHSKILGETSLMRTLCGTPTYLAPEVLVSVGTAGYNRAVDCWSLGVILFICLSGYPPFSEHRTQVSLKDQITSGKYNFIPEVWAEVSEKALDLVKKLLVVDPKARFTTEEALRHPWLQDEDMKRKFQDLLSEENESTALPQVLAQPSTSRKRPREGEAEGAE
Method: as §1

FES = target: T8, FES (Homo sapiens, UniProt P07332)
T8 construct: purchased in-house DSF panel (SGC Frankfurt)
T8 sequence (P07332 whole entry): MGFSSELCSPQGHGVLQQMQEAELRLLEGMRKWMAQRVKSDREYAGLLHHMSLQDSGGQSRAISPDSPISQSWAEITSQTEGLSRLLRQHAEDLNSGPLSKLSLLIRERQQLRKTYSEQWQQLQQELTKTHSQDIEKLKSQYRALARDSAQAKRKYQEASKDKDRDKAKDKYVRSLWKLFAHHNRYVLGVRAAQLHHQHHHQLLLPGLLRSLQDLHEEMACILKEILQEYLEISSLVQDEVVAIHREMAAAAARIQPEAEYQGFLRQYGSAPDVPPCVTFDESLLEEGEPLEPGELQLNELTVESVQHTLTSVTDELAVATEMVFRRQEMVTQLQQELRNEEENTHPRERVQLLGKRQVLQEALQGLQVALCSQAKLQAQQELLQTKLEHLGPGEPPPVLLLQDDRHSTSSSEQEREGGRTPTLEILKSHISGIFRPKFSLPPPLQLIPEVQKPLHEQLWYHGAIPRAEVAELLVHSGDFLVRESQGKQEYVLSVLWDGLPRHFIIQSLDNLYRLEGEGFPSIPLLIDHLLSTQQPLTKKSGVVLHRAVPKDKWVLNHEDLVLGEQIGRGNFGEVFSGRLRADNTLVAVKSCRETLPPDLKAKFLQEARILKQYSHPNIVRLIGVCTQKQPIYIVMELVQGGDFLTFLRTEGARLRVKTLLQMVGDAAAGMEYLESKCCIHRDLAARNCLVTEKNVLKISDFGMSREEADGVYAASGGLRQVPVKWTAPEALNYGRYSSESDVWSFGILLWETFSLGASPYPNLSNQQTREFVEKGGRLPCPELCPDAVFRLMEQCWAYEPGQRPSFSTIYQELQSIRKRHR
Method: as §1

GAK = target: T9, GAK (Homo sapiens, UniProt O14976)
T9 construct: purchased in-house DSF panel (SGC Frankfurt)
T9 sequence (O14976 14-351): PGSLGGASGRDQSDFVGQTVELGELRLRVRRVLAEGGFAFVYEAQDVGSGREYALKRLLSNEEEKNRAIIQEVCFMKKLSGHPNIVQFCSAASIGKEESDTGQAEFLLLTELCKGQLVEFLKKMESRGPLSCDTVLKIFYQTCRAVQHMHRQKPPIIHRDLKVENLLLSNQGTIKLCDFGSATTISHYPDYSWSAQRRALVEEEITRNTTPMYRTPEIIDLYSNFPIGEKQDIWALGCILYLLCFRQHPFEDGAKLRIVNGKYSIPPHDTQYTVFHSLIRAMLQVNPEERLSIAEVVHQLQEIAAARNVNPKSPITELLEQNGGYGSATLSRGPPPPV
Method: as §1

MAPK1 = target: T10, MAPK1 (Homo sapiens, UniProt P28482)
T10 construct: purchased in-house DSF panel (SGC Frankfurt)
T10 sequence (P28482 whole entry): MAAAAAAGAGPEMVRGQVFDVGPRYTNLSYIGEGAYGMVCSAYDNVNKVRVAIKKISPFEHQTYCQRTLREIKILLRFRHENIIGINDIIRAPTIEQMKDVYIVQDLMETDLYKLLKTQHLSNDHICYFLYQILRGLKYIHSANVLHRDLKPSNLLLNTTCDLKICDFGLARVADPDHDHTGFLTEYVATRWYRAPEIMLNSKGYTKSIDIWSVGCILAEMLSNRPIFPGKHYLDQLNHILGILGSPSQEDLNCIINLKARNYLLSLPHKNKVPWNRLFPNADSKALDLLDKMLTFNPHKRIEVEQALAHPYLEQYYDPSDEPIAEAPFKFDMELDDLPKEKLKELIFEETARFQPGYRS
Method: as §1

PAK4 = target: T11, PAK4 (Homo sapiens, UniProt O96013)
T11 construct: purchased in-house DSF panel (SGC Frankfurt)
T11 sequence (O96013 291-591): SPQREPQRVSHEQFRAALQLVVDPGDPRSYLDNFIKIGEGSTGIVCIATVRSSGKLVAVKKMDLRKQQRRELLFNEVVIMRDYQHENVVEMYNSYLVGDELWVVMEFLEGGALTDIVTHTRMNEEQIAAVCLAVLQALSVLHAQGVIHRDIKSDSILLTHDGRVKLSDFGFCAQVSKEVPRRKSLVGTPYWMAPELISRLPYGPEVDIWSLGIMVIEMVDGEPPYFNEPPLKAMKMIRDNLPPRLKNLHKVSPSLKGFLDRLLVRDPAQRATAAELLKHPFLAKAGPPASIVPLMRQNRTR
Method: as §1

PDK4 = target: T12, PDK4 (Homo sapiens, UniProt Q16654)
T12 construct: purchased in-house DSF panel (SGC Frankfurt)
T12 sequence (Q16654 whole entry): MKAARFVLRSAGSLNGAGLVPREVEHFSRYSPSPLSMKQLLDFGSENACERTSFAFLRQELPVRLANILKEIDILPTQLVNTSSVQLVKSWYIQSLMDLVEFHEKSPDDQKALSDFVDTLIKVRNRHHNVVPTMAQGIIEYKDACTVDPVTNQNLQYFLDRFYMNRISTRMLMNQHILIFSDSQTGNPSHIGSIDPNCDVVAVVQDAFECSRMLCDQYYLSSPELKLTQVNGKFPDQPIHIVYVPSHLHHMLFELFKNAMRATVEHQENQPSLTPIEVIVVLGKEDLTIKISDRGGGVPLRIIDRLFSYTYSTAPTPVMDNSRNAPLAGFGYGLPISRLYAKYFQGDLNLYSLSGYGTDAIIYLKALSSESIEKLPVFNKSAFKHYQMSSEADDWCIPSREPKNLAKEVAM
Method: as §1

RIOK1 = target: T13, RIOK1 (Homo sapiens, UniProt Q9BRS2)
T13 construct: purchased in-house DSF panel (SGC Frankfurt)
T13 sequence (Q9BRS2 143-494): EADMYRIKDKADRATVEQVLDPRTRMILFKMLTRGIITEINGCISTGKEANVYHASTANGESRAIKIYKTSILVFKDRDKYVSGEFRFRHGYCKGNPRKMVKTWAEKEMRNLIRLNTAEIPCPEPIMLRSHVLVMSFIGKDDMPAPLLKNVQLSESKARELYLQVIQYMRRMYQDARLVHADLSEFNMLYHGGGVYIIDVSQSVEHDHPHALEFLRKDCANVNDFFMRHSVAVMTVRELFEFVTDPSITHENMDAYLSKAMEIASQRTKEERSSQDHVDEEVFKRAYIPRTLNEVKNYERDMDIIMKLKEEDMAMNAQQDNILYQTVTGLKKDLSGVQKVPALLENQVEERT
Method: as §1

VRK1 = target: T14, VRK1 (Homo sapiens, UniProt Q99986)
T14 construct: purchased in-house DSF panel (SGC Frankfurt)
T14 sequence (Q99986 1-396): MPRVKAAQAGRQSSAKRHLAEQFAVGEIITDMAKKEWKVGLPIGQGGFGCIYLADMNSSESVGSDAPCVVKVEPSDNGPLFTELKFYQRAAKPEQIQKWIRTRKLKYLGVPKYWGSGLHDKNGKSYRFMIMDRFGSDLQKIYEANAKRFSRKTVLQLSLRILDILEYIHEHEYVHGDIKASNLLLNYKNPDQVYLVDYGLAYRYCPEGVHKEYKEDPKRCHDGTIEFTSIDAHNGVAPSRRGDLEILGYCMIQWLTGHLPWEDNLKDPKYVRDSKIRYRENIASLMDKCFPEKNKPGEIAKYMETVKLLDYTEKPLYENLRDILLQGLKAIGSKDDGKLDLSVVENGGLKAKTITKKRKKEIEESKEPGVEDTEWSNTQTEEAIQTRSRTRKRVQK
Method: as §1

COC(=O)c1cc(Nc2ccnc(NCc3ccc(NC(=O)OC(C)(C)C)cc3)n2)[nH]n1 [21i, methyl 5-((2-((4-((tert-butoxycarbonyl)amino)benzyl)amino)pyrimidin-4-yl)amino)-1H-pyrazole-3-carboxylate]
ΔTm ABL1 (ABL1): 0.7 °C
ΔTm BMX (BMX): -0.1 °C
ΔTm CAMK1D (CAMK1D): -0.5 °C
ΔTm CAMK1G (CAMK1G): 0.4 °C
ΔTm CASK (CASK): 0.2 °C
ΔTm CDKL1 (CDKL1): 0.5 °C
ΔTm CHEK2 (CHEK2): 0.6 °C
ΔTm FES (FES): 0.0 °C
ΔTm GAK (GAK): 1.3 °C
ΔTm MAPK1 (MAPK1): 0.7 °C
ΔTm PAK4 (PAK4): 0.2 °C
ΔTm PDK4 (PDK4): 0.9 °C
ΔTm RIOK1 (RIOK1): 0.8 °C
ΔTm VRK1 (VRK1): 1.1 °C

CC(C)(C)OC(=O)Nc1ccc(CNc2nccc(Nc3cc(C(=O)OC(C)(C)C)[nH]n3)n2)cc1 [43d, tert-butyl 3-((2-((4-((tert-butoxycarbonyl)amino)benzyl)amino)pyrimidin-4-yl)amino)-1H-pyrazole-5-carboxylate]
ΔTm ABL1 (ABL1): 1.6 °C
ΔTm BMX (BMX): -0.4 °C
ΔTm CAMK1D (CAMK1D): -2.9 °C
ΔTm CAMK1G (CAMK1G): -0.7 °C
ΔTm CASK (CASK): 0.4 °C
ΔTm CDKL1 (CDKL1): 2.1 °C
ΔTm CHEK2 (CHEK2): 1.3 °C
ΔTm FES (FES): 1.1 °C
ΔTm GAK (GAK): -4.1 °C
ΔTm MAPK1 (MAPK1): 0.0 °C
ΔTm PAK4 (PAK4): -0.9 °C
ΔTm VRK1 (VRK1): 0.9 °C

COC(=O)c1cc(Nc2ccnc(NCCOCCNC(=O)OC(C)(C)C)n2)[nH]n1 [21d, methyl 5-((2-((2-(2-((tert-butoxycarbonyl)amino)ethoxy)ethyl)amino)pyrimidin-4-yl)amino)-1H-pyrazole-3-carboxylate]
ΔTm ABL1 (ABL1): 1.2 °C
ΔTm BMX (BMX): 0.2 °C
ΔTm CAMK1D (CAMK1D): 1.4 °C
ΔTm CAMK1G (CAMK1G): 0.4 °C
ΔTm CASK (CASK): 0.4 °C
ΔTm CDKL1 (CDKL1): 0.1 °C
ΔTm CHEK2 (CHEK2): 2.5 °C
ΔTm FES (FES): 1.5 °C
ΔTm GAK (GAK): 2.1 °C
ΔTm MAPK1 (MAPK1): 0.3 °C
ΔTm PAK4 (PAK4): 1.0 °C
ΔTm PDK4 (PDK4): 1.8 °C
ΔTm RIOK1 (RIOK1): 0.1 °C
ΔTm VRK1 (VRK1): 1.0 °C

CC(C)OC(=O)c1cc(Nc2ccnc(NCc3ccc(NC(=O)OC(C)(C)C)cc3)n2)n[nH]1 [42d, isopropyl 3-((2-((4-((tert-butoxycarbonyl)amino)benzyl)amino)pyrimidin-4-yl)amino)-1H-pyrazole-5-carboxylate]
ΔTm ABL1 (ABL1): 1.0 °C
ΔTm BMX (BMX): -0.1 °C
ΔTm CAMK1D (CAMK1D): -2.4 °C
ΔTm CAMK1G (CAMK1G): -0.2 °C
ΔTm CASK (CASK): 0.4 °C
ΔTm CDKL1 (CDKL1): 1.7 °C
ΔTm CHEK2 (CHEK2): 0.6 °C
ΔTm FES (FES): 0.1 °C
ΔTm GAK (GAK): -0.9 °C
ΔTm MAPK1 (MAPK1): -0.1 °C
ΔTm PAK4 (PAK4): -0.2 °C
ΔTm VRK1 (VRK1): 0.5 °C

N#CCc1ccc(Nc2nccc(Nc3cc(C4CC4)[nH]n3)n2)cc1 [compound 1, reference compound]
ΔTm ABL1 (ABL1): 8.7 °C
ΔTm BMX (BMX): 4.4 °C
ΔTm CAMK1D (CAMK1D): 5.4 °C
ΔTm CAMK1G (CAMK1G): 5.5 °C
ΔTm CASK (CASK): 2.0 °C
ΔTm CDKL1 (CDKL1): 6.8 °C
ΔTm CHEK2 (CHEK2): 8.6 °C
ΔTm FES (FES): 4.5 °C
ΔTm GAK (GAK): 8.0 °C
ΔTm MAPK1 (MAPK1): 8.5 °C
ΔTm PAK4 (PAK4): 7.7 °C
ΔTm PDK4 (PDK4): 1.2 °C
ΔTm RIOK1 (RIOK1): 4.9 °C
ΔTm VRK1 (VRK1): 5.9 °C

— PMC9736855, “Discovery of 3-Amino-1H-pyrazole-Based Kinase Inhibitors to Illuminate the Understudied PCTAIRE Family” (International Journal of Molecular Sciences, 2022)
